Results published in patent publication US20030157186A1, “Method for maintaining or improving the synthesis of mucins” (priority 2003, published 2003).

Test system: HT29-MTX cells
Assay: Fractional synthesis rate of mucoproteins in vitro (3H-threonine incorporation)
Format: cell-based, human
Settings: for mucoprotein FSR: day 7 to 21, mean±SEM, n=6
Protocol: The effect of threonine supplementation on the mucin synthesis rate was analyzed in vitro in HT29-MTX cells (human colonic carcinoma cells). HT29-MIX cells were grown in normal Dulbecco's modified minimum essential medium (DMEM) supplemented with 10% (v/v) heat-inactivated fetal bovine serum (Life Technologies) and containing 25 mM glucose, 1% non-essential amino acids (Life Technologies), 2 mM glutamine (AJINOMOTO CO), 85 mg/L penicillin-streptomycin, 50 mg/L gentamicin, and 1.5 mg/L Amphotericin B (Life Technologies). Cells were cultured at 37° C. in an atmosphere containing 10% CO2:90% air. The culture medium was changed daily. Experiments were carried out in T75 cm^2 culture flasks between passages 10 to 20. Studies were performed in the late post-confluent period (21 days after seeding), when all cells display a mucin-secreting phenotype. For the experiment, cells were grown in the normal DMEM until confluency (7 days after seeding). Then from day 7 to day 21 after seeding, several concentrations of threonine in the DMEM were tested, namely, 0.2 mM, 0.4 mM, 0.8 mM and 1.6 mM. At day 20, L-(3-^3H) threonine (30 microCi/Flask) was added to a fresh 10 mL culture medium. The incorporation of the radioactive tracer to newly synthesized mucoproteins was determined for the following 24 hour period. After 24 hours of metabolic labeling, the culture medium of cells was removed. […] An aliquot of each homogenate was removed for the measurement of the specific radioactivity of the intracellular free threonine considered as the precursor pool. […] Purified mucins were hydrolyzed with 6M HCl (24 h at 100° C.), and their amino acid composition was determined by HPLC. […] The fractional synthesis rate (FSR) of mucoproteins was calculated and expressed in percent/day (%/d): (FSR=(Specific radioactivity of mucoprotein bound threonine/Specific radioactivity of intracellular free threonine)*100). […] The mucoprotein FSR was determined for each of the varying concentrations of threonine (mM) in the culture medium of HT29-MTX cells as further shown in FIG. 1.

## C[C@@H](O)[C@H](N)C(=O)O [threonine]
0.2 mM threonine in culture medium
  mucoprotein FSR: 26.4±1.4%
0.8 mM threonine in culture medium
  mucoprotein FSR: 37.3±1.4%
0.2 to 1.6 mM tested
  threonine concentration at which mucoprotein FSR reached a plateau: about 0.8 mM
